# Laboratory results reported in patent US20210355065A1, “CB-0406 tromethamine salt” (CymaBay Therapeutics, Inc., priority 2020, published 2021).
# Key:
# [1] = From the text: CB-0406 tromethamine salt has been characterized using DSC, TGA, XRPD, hot stage microscopy, and solution ^1H NMR. CB-0406 tromethamine salt has also been tested by relative humidity stressing, and its solubility measured in simulated intestinal fluid without pancreatin.
# [2] = 75% RH and 41° C.
# Experimental: Relative humidity (RH) stressing of CB-0406 tromethamine salt was performed by placing solid CB-0406 tromethamine salt in an RH chamber containing a saturated aqueous solution of sodium chloride (˜75% RH), potassium chloride (˜84% RH, RT/-82% RH, 40° C.), sodium bromide (˜58% RH, RT), or potassium sulfate (˜97% RH, RT/-96% RH, 40° C.), with excess salt present. The chamber was sealed and left at ambient temperature or placed in an oven at elevated temperature.
# [3] = at 95% relative humidity relative to weight at 5% relative humidity; approx. 0.2 equivalents of water; essentially completely reversible
# Experimental: A DVS analysis of CB-0406 tromethamine salt was performed using a VTI SGA-100 Vapor Sorption Analyzer. The sample was not dried prior to analysis, and data were not corrected for the initial moisture content of the sample. Equilibrium criteria used for analysis were less than 0.010% weight change in 5 minutes, with a maximum equilibration time of 3 hours if the weight criterion was not met. […] Sodium chloride and polyvinylpyrrolidone were used as calibration standards.
# [4] = biological target: CYP 2C9 (Homo sapiens, UniProt P11712); details: tolbutamide hydroxylation assay; relative to (S)-enantiomer; cited from earlier work
# Chain of CYP 2C9 (P11712 whole entry, species assumed): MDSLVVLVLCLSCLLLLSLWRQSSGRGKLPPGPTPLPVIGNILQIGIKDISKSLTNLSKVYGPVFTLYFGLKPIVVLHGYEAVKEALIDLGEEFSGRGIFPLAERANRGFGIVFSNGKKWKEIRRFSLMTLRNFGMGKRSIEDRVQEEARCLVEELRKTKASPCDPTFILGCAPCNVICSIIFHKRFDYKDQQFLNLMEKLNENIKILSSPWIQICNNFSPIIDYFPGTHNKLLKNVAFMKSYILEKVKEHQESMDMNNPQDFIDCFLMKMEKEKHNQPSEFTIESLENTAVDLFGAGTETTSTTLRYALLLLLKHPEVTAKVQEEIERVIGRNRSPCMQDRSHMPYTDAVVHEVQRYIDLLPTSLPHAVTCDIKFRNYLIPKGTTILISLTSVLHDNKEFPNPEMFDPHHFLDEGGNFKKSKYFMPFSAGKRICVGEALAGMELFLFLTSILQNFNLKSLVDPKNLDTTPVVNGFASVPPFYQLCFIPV
Compound,solubility ([1]; simulated intestinal fluid without pancreatin),"solubility in simulated intestinal fluid, fold greater than that of CB-0406 ([1]; simulated intestinal fluid, relative to CB-0406)",appearance after RH stressing ([2]; at 7 and 9 days),"XRPD analysis after RH stressing ([2]; at 18 and 46 days, some increase in low angle scattering background)",net weight gain (DVS) [3],fold less active as an inhibitor of CYP 2C9 than its (S)-enantiomer [4]
"1,3-dihydroxy-2-(hydroxymethyl)propan-2-aminium (2R)-2-(4-chlorophenyl)-2-[3-(trifluoromethyl)phenoxy]acetate [CB-0406 tromethamine salt]",> 200 mg/mL,≥ 60 fold,free-flowing solid,consistent with CB-0406 tromethamine salt,less than 0.8%,
"O=C(O)[C@H](Oc1cccc(C(F)(F)F)c1)c1ccc(Cl)cc1 [CB-0406, (2R)-2-(4-chlorophenyl)-2-[3-(trifluoromethyl)phenoxy]acetic acid]",,,,,,approximately 20 fold
